Where a name gives a salt, the structure may show the parent alone.
Key:
Jurkat cells = test: Total cellular NAD+ level after MNNG-induced depletion (NAD/NADH Glo Assay), Jurkat cells; type: cell-based; details: for increase of NAD+ level: Jurkat cells, 100 μM MNNG 30 min; for % NAD+ Repletion: Jurkat, MNNG 100 μM, compound 1 mM
HEPG2 cells = test: Total cellular NAD+ level after MNNG-induced depletion (NAD/NADH Glo Assay), HEPG2 cells; type: cell-based; details: HEPG2, MNNG 100 μM, compound 1 mM

| SMILES | increase of NAD+ level (Jurkat cells; then olaparib 5 nM without NR for 3.5 hr) | increase of NAD+ level (Jurkat cells; then NR 100 μM without olaparib for 3.5 hr) | % NAD+ Repletion (Jurkat cells) | % NAD+ Repletion (HEPG2 cells) |
| --- | --- | --- | --- | --- |
| O=C(c1cc(Cc2n[nH]c(=O)c3ccccc23)ccc1F)N1CCN(C(=O)C2CC2)CC1 [olaparib, reference compound] | 8% | – | – | – |
| NC(=O)c1ccc[n+]([C@@H]2O[C@H](CO)[C@@H](O)[C@H]2O)c1 [NR, nicotinamide riboside] | – | 43% | – | – |
| COC(=O)CCC(=O)OC[C@H]1O[C@@H]([n+]2cccc(C(N)=O)c2)[C@H](O)[C@@H]1O [MP-43, 3-Carboxamide-1-((2R,3R,4S,5R)-3,4-dihydroxy-5-(((4-methoxy-4-oxobutanoyl)oxy)methyl)tetrahydrofuran-2-yl)pyridin-1-ium trifluoroacetate] | – | – | 12.9% | 31.1% |
| NC(=O)c1ccc[n+]([C@@H]2O[C@H](COC(=O)CCC(=O)O)[C@@H](O)[C@H]2O)c1 [MP-42, 3-Carboxamide-1-((2R,3R,4S,5R)-5-(((3-carboxypropanoyl)oxy)methyl)-3,4-dihydroxytetrahydrofuran-2-yl)pyridin-1-ium trifluoroacetate] | – | – | 8.2% | 23.7% |

Reference: patent publication US11286274B2, “Nicotinamide riboside derivatives and their uses” (MitoPower LLC, priority 2017, dated 2022)
